Measurements from PubChem BioAssay (NCI).
Where “and” joins values, the source holds several entries; their conditions need not be identical. Identical values can stand only once.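 All cell lines were grown in 96-well plates and treated with compound for 48 hours. GI50 = concentration required for 50% inhibition of growth. TGI is the concentration that stops growth completely.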

Columns and labels:
Test in all cases: DTP human tumour cell line panel, 48 h
[1] = system: NCI-H460 lung
[2] = system: HT29 colon
[3] = system: A498 renal
[4] = system: SR leukemia
[5] = system: T-47D breast
[6] = system: HS 578T breast
[7] = system: K-562 leukemia
[8] = system: COLO 205 colon
[9] = system: OVCAR-3 ovarian
[10] = system: SNB-19 CNS
[11] = system: SK-MEL-2 melanoma
[12] = system: SNB-75 CNS
[13] = system: NCI-H522 lung
[14] = system: SW-620 colon
[15] = system: PC-3 prostate
[16] = system: SK-OV-3 ovarian
[17] = system: UACC-257 melanoma
[18] = system: U251 CNS
[19] = system: LOX IMVI melanoma
[20] = system: MALME-3M melanoma
[21] = system: NCI-H226 lung
[22] = system: HCT-15 colon
[23] = system: UO-31 renal
[24] = system: OVCAR-4 ovarian
[25] = system: SN12C renal
[26] = system: 786-0 renal
[27] = system: SK-MEL-5 melanoma
[28] = system: RXF 393 renal
[29] = system: TK-10 renal
[30] = system: EKVX NSCLC
[31] = system: KM12 colon
[32] = system: OVCAR-8 ovarian
[33] = system: OVCAR-5 ovarian
[34] = system: BT-549 breast
[35] = system: ACHN renal
[36] = system: HOP-92 NSCLC
[37] = system: SK-MEL-28 melanoma
[38] = system: MDA-MB-231 breast
[39] = system: A549 NSCLC
[40] = system: IGROV1 ovarian
[41] = system: CCRF-CEM leukemia
[42] = system: NCI-H23 lung
[43] = system: MOLT-4 leukemia
[44] = system: HOP-62 NSCLC
[45] = system: CAKI-1 renal
[46] = system: MCF7 breast
[47] = system: SF-295 CNS
[48] = system: NCI/ADR-RES ovarian
[49] = system: DU-145 prostate
[50] = system: UACC-62 melanoma
[51] = system: HCC-2998 colon
[52] = system: HL-60(TB) leukemia
[53] = system: RPMI-8226 leukemia
[54] = system: SF-268 CNS
[55] = system: MDA-MB-435
[56] = system: HCT-116 colon
[57] = system: M14 melanoma
[58] = system: SF-539 CNS
[59] = system: MDA-N

## C=CCC1(O)c2ccccc2C(=O)c2c(NCCN(CC(=O)OCC)CC(=O)OCC)cccc21 (stereo not given)
[1]
  GI50: > 100 µM
  TGI: > 100 µM
[2]
  GI50: > 100 µM
  TGI: > 100 µM
[3]
  GI50: > 100 µM
  TGI: > 100 µM
[4]
  GI50: 46.5 µM
  TGI: > 100 µM
[5]
  GI50: 80.6 µM
  TGI: > 100 µM
[6]
  GI50: > 100 µM
  TGI: > 100 µM
[7]
  GI50: 30.9 µM
  TGI: > 100 µM
[8]
  GI50: > 100 µM
  TGI: > 100 µM
[9]
  GI50: > 100 µM
  TGI: > 100 µM
[10]
  GI50: > 100 µM
  TGI: > 100 µM
[11]
  GI50: > 100 µM
  TGI: > 100 µM
[12]
  GI50: > 100 µM
  TGI: > 100 µM
[13]
  GI50: > 100 µM
  TGI: > 100 µM
[14]
  GI50: > 100 µM
  TGI: > 100 µM
[15]
  GI50: 97.1 µM
  TGI: > 100 µM
[16]
  GI50: > 100 µM
  TGI: > 100 µM
[17]
  GI50: > 100 µM
  TGI: > 100 µM
[18]
  GI50: > 100 µM
  TGI: > 100 µM
[19]
  GI50: > 100 µM
  TGI: > 100 µM
[20]
  GI50: > 100 µM
  TGI: > 100 µM
[21]
  GI50: > 100 µM
  TGI: > 100 µM
[22]
  GI50: 69.5 µM
  TGI: > 100 µM
[23]
  GI50: > 100 µM
  TGI: > 100 µM
[24]
  GI50: > 100 µM
  TGI: > 100 µM
[25]
  GI50: 57 µM
  TGI: > 100 µM
[26]
  GI50: > 100 µM
  TGI: > 100 µM
[27]
  GI50: > 100 µM
  TGI: > 100 µM
[28]
  GI50: > 100 µM
  TGI: > 100 µM
[29]
  GI50: > 100 µM
  TGI: > 100 µM
[30]
  GI50: > 100 µM
  TGI: > 100 µM
[31]
  GI50: > 100 µM
  TGI: > 100 µM
[32]
  GI50: > 100 µM
  TGI: > 100 µM
[33]
  GI50: > 100 µM
  TGI: > 100 µM
[34]
  GI50: > 100 µM
  TGI: > 100 µM
[35]
  GI50: > 100 µM
  TGI: > 100 µM
[36]
  GI50: > 100 µM
  TGI: > 100 µM
[37]
  GI50: > 100 µM
  TGI: > 100 µM
[38]
  GI50: > 100 µM
  TGI: > 100 µM
[39]
  GI50: > 100 µM
  TGI: > 100 µM
[40]
  GI50: > 100 µM
  TGI: > 100 µM
[41]
  GI50: > 100 µM
  TGI: > 100 µM
[42]
  GI50: > 100 µM
  TGI: > 100 µM
[43]
  GI50: 75.6 µM
  TGI: > 100 µM
[44]
  GI50: > 100 µM
  TGI: > 100 µM
[45]
  GI50: > 100 µM
  TGI: > 100 µM
[46]
  GI50: > 100 µM
  TGI: > 100 µM
[47]
  GI50: > 100 µM
  TGI: > 100 µM
[48]
  GI50: > 100 µM
  TGI: > 100 µM
[49]
  GI50: > 100 µM
  TGI: > 100 µM
[50]
  GI50: > 100 µM
  TGI: > 100 µM
[51]
  GI50: > 100 µM
  TGI: > 100 µM
[52]
  GI50: 71.9 µM
  TGI: > 100 µM
[53]
  GI50: 98.5 µM
  TGI: > 100 µM
[54]
  GI50: > 100 µM
  TGI: > 100 µM
[55]
  GI50: > 100 µM
  TGI: > 100 µM
[56]
  GI50: > 100 µM
  TGI: > 100 µM
[57]
  GI50: > 100 µM
  TGI: > 100 µM
[58]
  GI50: > 100 µM
  TGI: > 100 µM

## C#CC1(O)C(COP(=O)(O)OC(COCCCCCCCCCCCCCCCCCC)COP(=O)(O)OCC2OC(n3cc(F)c(=O)[nH]c3=O)CC2O)OC(n2ccc(N)nc2=O)C1O (stereo not given)
[1]
  TGI: 15.3 µM and 15.1 µM
[2]
  TGI: > 100 µM and 41.5 µM
[3]
  GI50: 0.389 µM and 0.189 µM
  TGI: 14 µM and 5.12 µM
[6]
  GI50: 2.12 µM and 1.03 µM
  TGI: 44.8 µM and 17.2 µM
[7]
  TGI: > 100 µM and 16.7 µM
[8]
  TGI: 1.99 µM and 6.07 µM
[9]
  TGI: > 29.1 µM and 23.4 µM
[10]
  TGI: 16.7 µM and 15.1 µM
[11]
  GI50: < 0.049 µM and 0.432 µM
  TGI: 1.88 µM and 3.48 µM
[12]
  GI50: 0.343 µM and 0.975 µM
  TGI: 18.7 µM and 30.2 µM
[13]
  GI50: < 0.0377 µM and 0.0758 µM
  TGI: 0.223 µM and 1.52 µM
[14]
  TGI: > 100 µM and 48.1 µM
[15]
  GI50: 0.947 µM and 0.417 µM
  TGI: 24.3 µM and 11.4 µM
[16]
  TGI: 16.2 µM and > 100 µM
[17]
  TGI: 97.5 µM and 55.8 µM
[18]
  GI50: < 0.0428 µM and 0.177 µM
  TGI: 17.2 µM and 20.6 µM
[19]
  TGI: 7.25 µM and 37.7 µM
[20]
  GI50: 0.742 µM and 0.202 µM
  TGI: 21.8 µM and 3.51 µM
[21]
  TGI: 23.5 µM and 26 µM
[22]
  GI50: 0.134 µM and 0.335 µM
  TGI: > 74.9 µM and 34.4 µM
[23]
  GI50: < 0.0376 µM and 0.115 µM
  TGI: 1.15 µM and 4.26 µM
[24]
  GI50: 3.05 µM and 1.5 µM
  TGI: 31.4 µM and 23.4 µM
[25]
  TGI: > 65.1 µM
[26]
  GI50: 0.547 µM
  TGI: > 100 µM
[28]
  GI50: 0.306 µM and 2.46 µM
  TGI: 17.3 µM and 22.5 µM
[29]
  TGI: 9.09 µM and 3.83 µM
[30]
  GI50: 1.42 µM and 5.06 µM
  TGI: > 35.2 µM and 71.4 µM
[31]
  TGI: > 49.8 µM and 17 µM
[32]
  GI50: 0.0922 µM and 0.28 µM
  TGI: > 60.9 µM
[33]
  GI50: 1.04 µM and 2.99 µM
  TGI: > 46.2 µM and 68.6 µM
[34]
  TGI: > 42.8 µM and 8.71 µM
[35]
  TGI: > 100 µM
[36]
  GI50: 33.4 µM
  TGI: 10.6 µM and > 95.6 µM
[37]
  GI50: 0.618 µM and 1.49 µM
  TGI: 21.8 µM and 28.8 µM
[38]
  TGI: 26.7 µM and 31.1 µM
[39]
  TGI: > 38.3 µM and 22.6 µM
[40]
  GI50: 0.135 µM
  TGI: 2.59 µM and 4.59 µM
[41]
  GI50: 0.115 µM and 0.965 µM
  TGI: 15.3 µM and > 70.6 µM
[42]
  GI50: 0.613 µM and 2.28 µM
  TGI: 20.7 µM and 33.1 µM
[43]
  TGI: > 100 µM
[44]
  TGI: > 86.5 µM and 33.9 µM
[59]
  TGI: 12.4 µM and 13.7 µM
[45]
  TGI: 6.72 µM
[47]
  GI50: < 0.021 µM and 0.0441 µM
[48]
  TGI: 8.28 µM and 30.5 µM
[49]
  GI50: 0.274 µM and 0.0722 µM
  TGI: > 100 µM
[50]
  TGI: 11.8 µM and 7.46 µM
[51]
  TGI: > 28.4 µM
[52]
  GI50: 0.0952 µM and 0.21 µM
  TGI: 17.9 µM and 11.7 µM
[54]
  TGI: 15.9 µM and 15.1 µM
[55]
  TGI: 3.08 µM and 5.9 µM
[56]
  GI50: < 0.024 µM and 0.142 µM
  TGI: > 100 µM
[57]
  GI50: 1.53 µM and 0.218 µM
  TGI: 24.3 µM and 2.74 µM
[58]
  TGI: 12.2 µM and 22.3 µM
